# Patent publication US7410975B2, “Small molecule toll-like receptor (TLR) antagonists” (Coley Pharmaceutical Group, Inc., priority 2003, dated 2008)
# Structures can show the parent of a compound that is named as a salt.
# Target: T1, human TLR8 (hTLR8) (Homo sapiens, UniProt Q9NR97)
# T1 construct: expressed in transfected cells
# T1 sequence (Q9NR97 27-1041): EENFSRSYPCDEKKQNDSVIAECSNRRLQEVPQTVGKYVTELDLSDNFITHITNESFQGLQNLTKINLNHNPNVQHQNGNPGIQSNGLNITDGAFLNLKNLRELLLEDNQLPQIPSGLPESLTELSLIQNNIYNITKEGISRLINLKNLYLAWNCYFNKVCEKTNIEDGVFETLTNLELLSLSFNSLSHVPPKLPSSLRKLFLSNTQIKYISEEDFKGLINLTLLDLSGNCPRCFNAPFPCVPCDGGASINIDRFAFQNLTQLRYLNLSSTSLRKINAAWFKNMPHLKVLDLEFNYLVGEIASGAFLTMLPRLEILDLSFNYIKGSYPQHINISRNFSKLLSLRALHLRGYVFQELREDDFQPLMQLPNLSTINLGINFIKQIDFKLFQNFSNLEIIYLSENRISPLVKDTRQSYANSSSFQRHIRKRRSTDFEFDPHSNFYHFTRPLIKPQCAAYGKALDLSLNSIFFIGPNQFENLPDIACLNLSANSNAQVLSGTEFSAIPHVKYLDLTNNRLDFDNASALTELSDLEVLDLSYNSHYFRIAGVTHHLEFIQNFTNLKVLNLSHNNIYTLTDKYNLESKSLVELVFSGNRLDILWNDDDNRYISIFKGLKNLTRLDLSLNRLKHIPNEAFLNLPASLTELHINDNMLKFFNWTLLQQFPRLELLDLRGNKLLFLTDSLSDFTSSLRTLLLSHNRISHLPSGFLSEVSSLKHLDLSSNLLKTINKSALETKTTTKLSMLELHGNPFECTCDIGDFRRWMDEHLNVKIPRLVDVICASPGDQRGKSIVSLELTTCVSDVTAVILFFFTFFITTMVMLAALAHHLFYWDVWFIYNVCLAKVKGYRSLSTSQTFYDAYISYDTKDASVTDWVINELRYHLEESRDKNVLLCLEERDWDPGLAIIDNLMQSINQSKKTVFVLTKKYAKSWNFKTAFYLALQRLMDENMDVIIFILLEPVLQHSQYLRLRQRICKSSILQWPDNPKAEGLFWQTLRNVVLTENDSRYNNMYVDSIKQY
# Assay: Antagonist screen, hTLR8-NFκB-293 cells, NF-κB-luciferase reporter, with EC50 of R848
# Format: cell-based
# Details: compound at 0.5, 5, 50 μg/ml; EC50 concentration of R848; 16 h; NF-κB-luciferase
row,SMILES,"hTLR8 (inhibitory effect, antagonist score)"
1,"CN1CCc2cccc3c2[C@H]1Cc1ccc(O)c(O)c1-3.Cl [compound 101, Apomorphinehydrochloride (R, —)]",11 (compounds for which there was clear down regulation only at 50 μg/ml)
2,"CC(C)(C)c1ccc(C(O)CCCN2CCC(C(O)(c3ccccc3)c3ccccc3)CC2)cc1 (stereo not drawn) [compound 138, Terfenadine]",11 (compounds for which there was clear down regulation only at 50 μg/ml)
3,"CN(C)C(=O)C(CCN1CCC(O)(c2ccc(Cl)cc2)CC1)(c1ccccc1)c1ccccc1 [compound 144, Loperamidehydrochloride]",11 (compounds for which there was clear down regulation only at 50 μg/ml)
4,"COc1cc2c(cc1O)C[C@H]1c3c(cc(O)c(OC)c3-2)CCN1C [compound 600, Boldine]",— (compounds for which there was no clear down regulation even at 50 μg/ml)
5,"CN1CCc2cc3c(c4c2C1Cc1ccccc1-4)OCO3.Cl (stereo not drawn) [compound 669, Remerine hydrochloride]",— (compounds for which there was no clear down regulation even at 50 μg/ml)
6,"COc1cc2nc(N3CCN(C(=O)C4CCCO4)CC3)nc(N)c2cc1OC.Cl (stereo not drawn) [compound 751, Terazosin hydrochloride]",— (compounds for which there was no clear down regulation even at 50 μg/ml)
7,"COc1cc2nc(N3CCN(C(=O)C4COc5ccccc5O4)CC3)nc(N)c2cc1OC.CS(=O)(=O)O (stereo not drawn) [compound 858, Doxazosin mesylate]",— (compounds for which there was no clear down regulation even at 50 μg/ml)
8,CCN(CC)CCCC(C)Nc1nc(/C=C/c2ccc(Cl)cc2)nc2cc3ccccc3cc12 (stereo not drawn) [compound 2000],11 (compounds for which there was clear down regulation only at 50 μg/ml)

# Same assay, conditions: hTLR8-NFκB-293 cells, with EC50 of R848; compound at 0.5, 5 and 50 μg/ml
row,SMILES,hTLR8 (inhibitory effect)
1,"COc1cc2cc3c4cc(OC)c(OC)cc4cc[n+]3c(C)c2cc1OC [compound 431, Coralyne chloridehydrate]",— (compounds for which there was no clear down regulation even at 50 μg/ml)
2,"COc1ccc(Cc2nccc3cc(OC)c(OC)cc23)cc1OC.Cl [compound 583, Papaverinehydrochloride]",— (compounds for which there was no clear down regulation even at 50 μg/ml)
3,"COc1ccc2cc3[n+](cc2c1OC)CCc1cc2c(cc1-3)OCO2.[Cl-] [compound 586, Berberine chloride]",12 (compounds for which there was clear down regulation at 5 μg/ml and 50 μg/ml)
4,"CC[N+](C)(CC)CCC[n+]1c(-c2ccccc2)c2cc(N)ccc2c2ccc(N)cc21.[I-].[I-] [compound 792, Propidium iodide]",— (compounds for which there was no clear down regulation even at 50 μg/ml)
5,"CN(C)CCN(Cc1ccc(Cl)cc1)c1ccccn1.Cl [compound 807, Chloro-pyraminehydrochloride]",— (compounds for which there was no clear down regulation even at 50 μg/ml)
6,"CCOc1ccc(Cc2nccc3cc(OCC)c(OCC)cc23)cc1OCC.Cl [compound 830, Ethaverinehydrochloride]",11 (compounds for which there was clear down regulation only at 50 μg/ml)
7,O=c1c2c(nc(NCCO)n1-c1ccccc1)-c1ccccc1CC21CCCC1 [compound 891],— (compounds for which there was no clear down regulation even at 50 μg/ml)
8,O=c1c2c(nc(NCCO)n1Cc1ccccc1)-c1ccccc1CC21CCCC1 [compound 926],11 (compounds for which there was clear down regulation only at 50 μg/ml)
9,"CN1CCc2c1nc1ccccc1c2N [compound 990, 1-Methyl-2,3-dihydro-1H-pyrrolo[2,3-b]quinolin-4-ylamine]",— (compounds for which there was no clear down regulation even at 50 μg/ml)
10,CN1CCc2c1nc1ccccc1c2NC(=O)CN1CCCCCC1 [compound 1003],— (compounds for which there was no clear down regulation even at 50 μg/ml)
11,"Cc1ccc2nc3c(c(N)c2c1)CCN3C [compound 1091, 1,6-Dimethyl-2,3-dihydro-1H-pyrrolo[2,3-b]quinolin-4-ylamine]",11 (compounds for which there was clear down regulation only at 50 μg/ml)
12,Cc1ccc(-n2c(NCCO)nc3c(c2=O)C2(CCCCC2)Cc2ccccc2-3)cc1 [compound 1137],11 (compounds for which there was clear down regulation only at 50 μg/ml)
13,"CN1CCc2c1nc1ccc(Br)cc1c2N [compound 1142, 6-Bromo-1-methyl-2,3-dihydro-1H-pyrrolo[2,3-b]quinolin-4-ylamine]",11 (compounds for which there was clear down regulation only at 50 μg/ml)
14,O=C1c2ccc(S(=O)(=O)c3ccc4c(c3)C(=O)N(c3ccccn3)C4=O)cc2C(=O)N1c1ccccn1 [compound 1163],11 (compounds for which there was clear down regulation only at 50 μg/ml)
15,"CN1CCCCc2c1nc1ccccc1c2N [compound 1185, 1-Methyl-2,3,4,5-tetrahydro-1H-azepino[2,3-b]quinolin-6-ylamine]",— (compounds for which there was no clear down regulation even at 50 μg/ml)
16,CN1CCc2c1nc1ccccc1c2NC(=O)CN1CCN(c2ccccc2)CC1 [compound 1212],— (compounds for which there was no clear down regulation even at 50 μg/ml)
17,Cn1c(NN)nc2c(c1=O)C1(CCCC1)Cc1ccccc1-2 [compound 1213],— (compounds for which there was no clear down regulation even at 50 μg/ml)
18,"Nc1c2c(nc3ccccc13)N(Cc1ccccc1)CC2 [compound 1217, 1-Benzyl-2,3-dihydro-1H-pyrrolo[2,3-b]quinolin-4-ylamine]",11 (compounds for which there was clear down regulation only at 50 μg/ml)
19,CCCCCCN(CCCCCC)CC(=O)Nc1c2c(nc3ccccc13)N(C)CC2 [compound 1224],12 (compounds for which there was clear down regulation at 5 μg/ml and 50 μg/ml)
20,O=C(CN1CCCC1)Nc1c2c(nc3ccccc13)N(c1ccccc1)CC2 [compound 1244],11 (compounds for which there was clear down regulation only at 50 μg/ml)
21,NNc1nc2c(c(=O)n1C1CCCC1)C1(CCCC1)Cc1ccccc1-2 [compound 1248],11 (compounds for which there was clear down regulation only at 50 μg/ml)
22,NNc1nc2c(c(=O)n1-c1ccccc1)C1(CCCC1)Cc1ccccc1-2 [compound 1320],— (compounds for which there was no clear down regulation even at 50 μg/ml)
23,O=c1[nH]c(NCCO)nc2c1C1(CCCC1)Cc1ccccc1-2 [compound 1322],— (compounds for which there was no clear down regulation even at 50 μg/ml)
24,CCCCCCCCCCCC(=O)Nc1c2c(nc3ccccc13)N(C)CC2 [compound 1334],— (compounds for which there was no clear down regulation even at 50 μg/ml)
25,O=C1c2ccc(Oc3ccc(S(=O)(=O)c4ccc(Oc5ccc6c(c5)C(=O)N(c5ccccn5)C6=O)cc4)cc3)cc2C(=O)N1c1ccccn1 [compound 1367],11 (compounds for which there was clear down regulation only at 50 μg/ml)
